Three molecules from patent US5681954A, “Piperazine derivatives” (Daiichi Pharmaceutical Co., Ltd., priority 1993, dated 1997) can be followed below.

pIC50: −log10 of the molar value.

In test [1] the target is T1, Ca/Calmodulin-Dependent PDE (Bos taurus, UniProt P62157).
T1 construct: CaM from bovine brain; from tissue; host or cells: bovine brain
As to the kind of experiment: Calmodulin (CaM) inhibitory activity: inhibition of CaM-potentiated cyclic nucleotide phosphodiesterase (PDE). The class given is biochemical. The following applies: CaM and PDE from bovine brain, [3H]-cGMP, 30° C., 10 minutes, pH 7.5; read-out: IC50 (concentration showing 50% inhibition of PDE activity potentiated by CaM).

Test [2] concerns Nitrogen-induced Hypoxia Model in Mouse. Briefly: Activity on Nitrogen-induced Hypoxia Model in Mouse. The class given is in vivo. Particulars: 30 mg/kg, p.o., 60 minutes before nitrogen, over control group (100%). How it is done:
Nine to ten mice per group were each orally given […] of a test compound. After 60 minutes from the administration, each mouse was put in a 500 ml-volume transparent container having a vent hole; and nitrogen gas was introduced into the container at a rate of 5000 ml/min. The time from the start of nitrogen introduction to respiratory standstill was measured, and a rate of increase of the time over that of a control group (100%) was obtained.

With `COc1ccc(Cn2nc(CCN3CCN(c4cccc(Cl)c4C)CC3)c3cc(OC)c(OC)cc32)cc1OC` [Example 17, 3-(2-(4-(3-Chloro-2-methylphenyl)-1-piperazinyl)ethyl)-5,6-dimethoxy-1-(3,4-dimethoxybenzyl)-1H-indazole], the pIC50 in test [1] is 5.51. The “Rate of Increase of Survival Time” value in test [2] is 19.2%. On to `COc1cc2c(CCN3CCN(c4cccc(Cl)c4C)CC3)nn(Cc3c[nH]cn3)c2cc1OC` [Example 23, 3-(2-(4-(3-Chloro-2-methylphenyl)-1-piperazinyl)ethyl)-5,6-dimethoxy-1-(4-imidazolylmethyl)-1H-indazole], for which the pIC50 in test [1] was 5.26.

As for `COc1cc2[nH]nc(CCN3CCN(c4cccc(Cl)c4C)CC3)c2cc1OC` [Example 81], the pIC50 in test [1] was 5.03.
